Source: patent publication US8513271B2, “Pyrimidine compounds as delta opioid receptor modulators” (Janssen Pharmaceutica, NV, priority 2009, dated 2013)
Where two headings read alike, the source gives them in different places.

Molecular target: T1, delta opioid receptor (Mus musculus, UniProt P32300)
T1 construct: NG108-15 cell membranes were purchased from Applied Cell Sciences (Rockville, Md.); host or cells: NG108-15 cell membranes
Experiment: [35S]GTPγS binding assay in NG108-15 cell membranes (delta opioid functional assay), 200 nM screen
Type: biochemical
Conditions: NG108-15 cell membranes; for GTPγS δ-RelEfficacy @200 nM: 200 nM test compound, relative to calculated max of SNC80 dose response curve; for GTPγS δ-RelEfficacy @200 nM / EC50: averages if tested more than once; for GTPγS δ-opioid receptor Rel Efficacy: relative efficacy from dose response

[1] = read-out: GTPγS δ-opioid receptor EC50
[2] = GTPγS δ-opioid receptor EC50 (μM)

T1 sequence (P32300 whole entry): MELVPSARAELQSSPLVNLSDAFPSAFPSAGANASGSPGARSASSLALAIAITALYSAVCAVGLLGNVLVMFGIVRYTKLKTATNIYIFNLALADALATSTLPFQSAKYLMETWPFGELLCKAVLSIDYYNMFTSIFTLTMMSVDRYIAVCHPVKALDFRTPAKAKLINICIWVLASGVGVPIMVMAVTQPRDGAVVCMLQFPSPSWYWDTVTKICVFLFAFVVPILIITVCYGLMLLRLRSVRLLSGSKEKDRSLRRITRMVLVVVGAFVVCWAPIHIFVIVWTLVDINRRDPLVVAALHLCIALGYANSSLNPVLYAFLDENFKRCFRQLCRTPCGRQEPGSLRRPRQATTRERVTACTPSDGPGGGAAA

SMILES | GTPγS δ-RelEfficacy @200 nM | EC50 [1] | GTPγS δ-opioid receptor Rel Efficacy | EC50 [2]
FCc1ccc(Oc2nc(-c3cccnc3)ncc2NC[C@@H]2CCCN2)cc1 [Cpd 217, [4-(4-Fluoromethyl-phenoxy)-2-pyridin-3-yl-pyrimidin-5-yl]-pyrrolidin-2-(S)-ylmethyl-amine] | 0.480 | 0.612 µM | 0.882 | –
Cc1cc(Oc2nc(-c3cncc(C#N)c3)ncc2NC[C@@H]2CCCN2)ccc1F [Cpd 218] | 0.642 | 0.353 µM | 0.960 | –
Cc1cc(Oc2nc(-c3cncc(F)c3)ncc2NC[C@@H]2CCCN2)ccc1F [Cpd 219] | 0.475 | > 1 µM | – | –
N#Cc1cncc(-c2ncc(NC[C@@H]3CCCN3)c(Oc3ccc(C(F)(F)F)cc3)n2)c1 [Cpd 220] | 0.457 | 0.454 µM | 0.890 | –
Fc1cncc(-c2ncc(NC[C@@H]3CCCN3)c(Oc3ccc(C(F)(F)F)cc3)n2)c1 [Cpd 221] | 0.324 | – | – | –
CS(=O)(=O)c1ccc(Oc2nc(-c3cncc(F)c3)ncc2NC[C@@H]2CCCN2)cc1 [Cpd 222] | 0.284 | – | – | –
O=CNc1ccc(Oc2nc(-c3cncc(F)c3)ncc2NC[C@@H]2CCCN2)cc1 [Cpd 223] | 0.802 | 0.152 µM | 0.986 | –
COc1ccc(Oc2nc(-c3cccnc3)ncc2N[C@@H]2CCNC2)cc1 [Cpd 224] | 0.460 | 0.214 µM | 1.104 | –
COc1ccc(Oc2nc(-c3cccnc3)ncc2NC[C@@H]2CCCCN2)cc1 [Cpd 225] | 0.260 | 0.483 µM | 0.718 | –
COc1ccc(Oc2nc(-c3cccnc3)ncc2NC2CNC2)cc1 [Cpd 226] | 0.320 | – | – | –
Cc1ccccc1Oc1nc(-c2cncc(Cl)c2)ncc1NC[C@@H]1CCCN1 [Cpd 227] | 0.480 | 0.246 µM | 1.093 | –
CC(=O)Oc1cccc(Oc2nc(-c3cncc(C#N)c3)ncc2NC[C@@H]2CCCN2)c1 [Cpd 228] | 1.039 | – | 1.082 | 0.006 µM
Clc1cncc(-c2ncc(NC[C@@H]3CCCN3)c(Oc3ccccc3Cl)n2)c1 [Cpd 229] | 0.715 | – | 0.890 | 0.061 µM
N#Cc1cncc(-c2ncc(NC[C@@H]3CCCN3)c(Oc3ccccc3Cl)n2)c1 [Cpd 230] | 0.847 | – | – | –
N#Cc1cncc(-c2ncc(NC[C@@H]3CCCN3)c(Oc3cccc(O)c3)n2)c1 [Cpd 231] | 1.159 | – | 1.113 | 0.005 µM
COc1cncc(-c2ncc(NC[C@@H]3CCCN3)c(Oc3ccccc3Cl)n2)c1 [Cpd 232] | 0.679 | 0.143 µM | 1.021 | –
CSc1cncc(-c2ncc(NC[C@@H]3CCCN3)c(Oc3ccccc3Cl)n2)c1 [Cpd 233] | 0.549 | – | – | –
COCCOc1ccc(Oc2nc(-c3cncc(SC)c3)ncc2NC[C@@H]2CCCN2)cc1 [Cpd 241] | 0.381 | – | – | –
COCCOc1ccc(Oc2nc(-c3cncc(C)c3)ncc2NC[C@@H]2CCCN2)cc1 [Cpd 242] | 0.413 | – | – | –
COCCOc1ccc(Oc2nc(-c3cncc(OC)c3)ncc2NC[C@@H]2CCCN2)cc1 [Cpd 243] | 0.433 | – | – | –
COCCOc1ccc(Oc2nc(-c3cccnc3)ncc2NC[C@@H]2CCCN2)cc1 [Cpd 244] | 0.354 | – | – | –
COc1ccc(Oc2nc(-c3cncc(OC)c3)ncc2N[C@@H]2CCCNC2)cc1 [Cpd 246] | – | – | 1.043 | 0.078 µM
CSc1cncc(-c2ncc(NC[C@@H]3CCCN3)c(Oc3cccc(OC(C)=O)c3)n2)c1 [Cpd 248] | 0.754 | – | 1.084 | 0.047 µM
COc1cncc(-c2ncc(NC[C@@H]3CCCN3)c(Oc3cccc(O)c3)n2)c1 [Cpd 249] | 1.000 | – | 0.940 | 0.011 µM
COc1cncc(-c2ncc(NC[C@@H]3CCCN3)c(Oc3cccc(OC(C)=O)c3)n2)c1 [Cpd 250, Acetic acid 3-{2-(5-methoxy-pyridin-3-yl)-5-[(pyrrolidin-2-(S)-ylmethyl)-amino]-pyrimidin-4-yloxy}-phenyl ester] | 0.912 | – | 1.022 | 0.026 µM
CC(=O)Oc1cccc(Oc2nc(-c3cncc(C)c3)ncc2NC[C@@H]2CCCN2)c1 [Cpd 251] | 0.955 | – | 1.145 | 0.015 µM
COc1ccc(Oc2nc(-c3cncc(SC)c3)ncc2N[C@@H]2CCCNC2)cc1 [Cpd 254] | – | – | 0.928 | 0.151 µM

SMILES | GTPγS δ-RelEfficacy @200 nM | EC50 [1] | GTPγS δ-opioid receptor Rel Efficacy | EC50 [2]
COc1ccc(Oc2nc(-c3cncc(C)c3)ncc2N[C@H]2CCNC2)cc1 [Cpd 257] | – | – | 0.830 | 0.095 µM
COc1ccc(Oc2nc(-c3cncc(C)c3)ncc2N[C@@H]2CCCNC2)cc1 [Cpd 258] | – | – | 0.835 | 0.075 µM
COc1ccc(Oc2nc(-c3cncc(C)c3)ncc2N[C@H]2CCCNC2)cc1 [Cpd 259] | – | – | 1.030 | 0.0749 µM
Cc1cncc(-c2ncc(NC[C@@H]3CCCN3)c(Oc3ccc(OCF)cc3)n2)c1 [Cpd 260] | – | 0.3 µM | 0.937 | –
COc1ccc(Oc2nc(-c3cccnc3)ncc2N[C@@H]2CCCNC2)cc1 [Cpd 261] | – | – | 0.979 | 0.241 µM
COc1ccc(Oc2nc(-c3cnc(F)c(C)c3)ncc2NC[C@@H]2CCCN2)cc1 [Cpd 262] | – | 0.037 µM | 0.957 | –
COc1ccc(Oc2nc(-c3cc(C)cnc3C)ncc2NC[C@@H]2CCCN2)cc1 [Cpd 263] | – | – | 0.869 | 0.027 µM
COc1ccc(Oc2nc(-c3cnc(-c4cnc(Cl)c(C)c4)c(C)c3)ncc2NC[C@@H]2CCCN2)cc1 [Cpd 264] | – | 0.12 µM | 1.036 | –
COc1ccc(Oc2nc(-c3cnc(Cl)cc3C)ncc2NC[C@@H]2CCCN2)cc1 [Cpd 265] | – | – | 1.024 | 0.053 µM
COc1ccc(Oc2nc(-c3cnc(Cl)c(C)c3)ncc2NC[C@@H]2CCCN2)cc1 [Cpd 266] | – | – | 1.041 | 0.018 µM
COc1ccc(Oc2nc(-c3cccnc3)ncc2NC[C@H]2CCCCN2)cc1 [Cpd 267] | – | 0.121 µM | 0.920 | –
COc1ccc(Oc2nc(-c3cc(C)cnc3Cl)ncc2NC[C@@H]2CCCN2)cc1 [Cpd 268] | – | – | 1.023 | 0.081 µM
COc1ccc(Oc2nc(-c3cncc(CO)c3)ncc2NC[C@@H]2CCCN2)cc1 [Cpd 269, (5-{4-(4-Methoxy-phenoxy)-5-[(pyrrolidin-2-(S)-ylmethyl)-amino]-pyrimidin-2-yl}-pyridin-3-yl)-methanol] | – | – | 0.984 | 0.053 µM
COc1ccc(Oc2nc(-c3cccnc3)ncc2NC[C@@H]2C[C@@H](O)CN2)cc1 [Cpd 270, 5-(S)-{[4-(4-Methoxy-phenoxy)-2-(pyridin-3-yl)-pyrimidin-5-ylamino]-methyl}-pyrrolidin-3-(R)-ol] | – | 0.197 µM | 0.820 | –
COc1ccc(Oc2nc(-c3cccnc3)ncc2NC[C@@H]2C[C@H](O)CN2)cc1 [Cpd 272] | – | > 1 µM | – | –
COc1ccc(Oc2nc(-c3cncc(OC)c3)ncc2NC[C@@H]2C[C@@H](O)CN2)cc1 [Cpd 273, 5-(S)-{[4-(4-Methoxy-phenoxy)-2-(5-methoxy-pyridin-3-yl)-pyrimidin-5-ylamino]-methyl}-pyrrolidin-3-(R)-ol] | – | – | 1.001 | 0.026 µM
COc1ccc(Oc2nc(-c3cncc(OC)c3)ncc2NC[C@H]2C[C@@H](O)CN2)cc1 [Cpd 274, 5-(R)-{[4-(4-Methoxy-phenoxy)-2-(5-methoxy-pyridin-3-yl)-pyrimidin-5-ylamino]-methyl}-pyrrolidin-3-(R)-ol] | – | – | 0.863 | 0.286 µM
COc1ccc(Oc2nc(-c3cncc(C#N)c3)ncc2NCc2ncc[nH]2)cc1 [Cpd 284] | 0.600 | – | 0.609 | 0.055 µM
COc1ccc(Oc2nc(-c3cncc(C#N)c3)ncc2NCc2[nH]cnc2C)cc1 [Cpd 285, 5-{4-(4-Methoxy-phenoxy)-5-[(5-methyl-3H-imidazol-4-ylmethyl)-amino]-pyrimidin-2-yl}-nicotinonitrile] | 0.730 | – | 0.782 | 0.027 µM
COc1ccc(Oc2nc(-c3cncc(C#N)c3)ncc2NCc2cncn2C)cc1 [Cpd 286] | 0.1 | – | – | –
CCc1nc(C)c(CNc2cnc(-c3cncc(C#N)c3)nc2Oc2ccc(OC)cc2)[nH]1 [Cpd 287] | 0.640 | – | – | –
COc1ccc(Oc2nc(-c3cccnc3)ncc2NCc2cnc[nH]2)cc1 [Cpd 288] | 0.428 | – | – | –
COc1ccc(Oc2nc(-c3cncc(SC)c3)ncc2NCc2cnc[nH]2)cc1 [Cpd 289] | 0.402 | – | – | –
COc1ccc(Oc2nc(-c3cncc(OC)c3)ncc2NCc2cnc[nH]2)cc1 [Cpd 290] | 0.398 | – | – | –
COc1ccc(Oc2nc(-c3cncc(C)c3)ncc2NCc2cnc[nH]2)cc1 [Cpd 291] | 0.303 | – | – | –
COc1ccc(Oc2nc(-c3cncc(C)c3)ncc2NCCN)cc1 [Cpd 296] | – | 0.429 µM | 0.938 | –
CNCCNc1cnc(-c2cccnc2)nc1Oc1ccc(OC)cc1 [Cpd 297] | – | 0.424 µM | 0.820 | –
